Holding throughout (type): in vivo
The subject of one test is Phakopsora pachyrhizi. As to the kind of experiment: Asian soybean rust (PHAKPA) disease control on soybean seedlings. As to conditions: High volume application at 25 ppm; for pest or weed control at 25 ppm: Phakopsora pachyrhizi. The method, then: Example C: Evaluation of Fungicidal Activity: Asian Soybean Rust (Phakopsora pachyrhizi; Bayer Code […]) Technical grades of materials were dissolved in acetone, which were then mixed with nine volumes of water containing 0.011% Tween 20. The fungicide solutions were applied onto soybean seedlings using an automated booth sprayer to run-off. All sprayed plants were allowed to air dry prior to further handling. Soybean plants (variety Williams 82) were grown in soil-less Metro mix, with one plant per pot. Two week old seedlings were used for testing. Plants were inoculated either 3 days prior to or 1 day after fungicide treatments. Plants were incubated for 24 h in a dark dew room at 22° C. and 100% relative humidity then transferred to a growth room at 23° C. for disease to develop. Disease severity was assessed on the sprayed leaves.

A further test concerns Zymoseptoria tritici. Description: Leaf blotch of wheat (SEPTTR) disease control on wheat seedlings. As to conditions: High volume application, 100 ppm. On the procedure:
Example A: Evaluation of Fungicidal Activity: Leaf Blotch of Wheat (Zymoseptoria tritici; Bayer Code […]) Technical grades of materials were dissolved in acetone, which were then mixed with nine volumes of water containing 110 ppm Triton X-100. The fungicide solutions were applied onto wheat seedlings using an automated booth sprayer to run-off. All sprayed plants were allowed to air dry prior to further handling. All fungicides were evaluated using the aforementioned method for their activity vs. all target diseases, unless stated otherwise. Wheat leaf blotch and brown rust activity were also evaluated using track spray applications, in which case the fungicides were formulated as EC formulations, containing 0.1% Trycol 5941 in the spray solutions. Wheat plants (variety Yuma) were grown from seed in a greenhouse in 50% mineral soil/50% soil-less Metro mix until the first leaf was fully emerged, with 7-10 seedlings per pot. These plants were inoculated with an aqueous spore suspension of Zymoseptoria tritici either prior to or after fungicide treatments. After inoculation the plants were kept in 100% relative humidity (one day in a dark dew chamber followed by two to three days in a lighted dew chamber at 20° C.) to permit spores to germinate and infect the leaf. The plants were then transferred to a greenhouse set at 20° C. for disease to develop. When disease symptoms were fully expressed on the 1st leaves of untreated plants, infection levels were assessed on a scale of 0 to 100 percent disease severity. Percent disease control was calculated using the ratio of disease severity on treated plants relative to untreated plants.

Another test concerns Puccinia triticina. Description: Wheat brown rust (PUCCRT) disease control on wheat seedlings. As to conditions: High volume application, 100 ppm. The method, then:
Technical grades of materials were dissolved in acetone, which were then mixed with nine volumes of water containing 110 ppm Triton X-100. The fungicide solutions were applied onto wheat seedlings using an automated booth sprayer to run-off. All sprayed plants were allowed to air dry prior to further handling. All fungicides were evaluated using the aforementioned method for their activity vs. all target diseases, unless stated otherwise. Wheat leaf blotch and brown rust activity were also evaluated using track spray applications, in which case the fungicides were formulated as EC formulations, containing 0.1% Trycol 5941 in the spray solutions. Example B: Evaluation of Fungicidal Activity: Wheat Brown Rust (Puccinia triticina; Synonym: Puccinia recondita f. sp. tritici; Bayer Code PUCCRT) Wheat plants (variety Yuma) were grown from seed in a greenhouse in 50% mineral soil/50% soil-less Metro mix until the first leaf was fully emerged, with 7-10 seedlings per pot. These plants were inoculated with an aqueous spore suspension of Puccinia triticina either prior to or after fungicide treatments. After inoculation the plants were kept in a dark dew room at 22° C. with 100% relative humidity overnight to permit spores to germinate and infect the leaf. The plants were then transferred to a greenhouse set at 24° C. for disease to develop. Fungicide formulation, application and disease assessment followed the procedures as described in the Example A.

Setting [1] is: 24 h, 1 day protectant, read-out: PHAKPA 1DP (1 Day Protectant) disease control.
[2] abbreviates: 72 h, 3 day curative, read-out: PHAKPA 3DC (3 Day Curative) disease control.
The mark [3] stands for this setting: 24 h, 1 Day Protectant, read-out: SEPTTR disease control rating, 1DP.
Setting [4] is: 72 h, 3 Day Curative, read-out: SEPTTR disease control rating, 3DC.
The mark [5] stands for this setting: 24 h, 1 Day Protectant, read-out: PUCCRT disease control rating, 1DP.
Where [6] appears, read: 72 h, 3 Day Curative, read-out: PUCCRT disease control rating, 3DC.

Each structure is given as a SMILES string. Where two headings read alike, the source gives them in different places. A value given as a limit tells only on which side of the number the result lay.

Take `COc1ccnc(C(=O)N[C@@H](C)C(=O)O[C@@H](C)[C@H](C)c2ccccc2C)c1OC(=O)C(C)C` [Example 228]: the “PHAKPA 1DP (1 Day Protectant) disease control” value (from here on “PHAKPA 1DP”) in the test on Phakopsora pachyrhizi (1 day protectant) is listed as “D (≤0)”. Further, the “PHAKPA 3DC (3 Day Curative) disease control” value (“PHAKPA 3DC” for short) in the test with Phakopsora pachyrhizi (3 day curative) is recorded as “D (≤0)”.

For `COc1ccnc(C(=O)N[C@@H](C)C(=O)O[C@@H](C)[C@@H](C)c2ccccc2C)c1OC(=O)c1ccccc1` [Example 282], the pest or weed control at 25 ppm in the test on Phakopsora pachyrhizi (setting [1]) and in the test on Phakopsora pachyrhizi (setting [2]) was above 80% each time.

Regarding `COc1ccnc(C(=O)N[C@@H](C)C(=O)O[C@@H](C)[C@@H](C)c2ccccc2C)c1OCOC(=O)C(C)C` [Example 284], the pest or weed control at 25 ppm in the test with Phakopsora pachyrhizi (setting [1]) and in the test on Phakopsora pachyrhizi (setting [2]) was above 80% each time.

With `COc1ccnc(C(=O)N[C@H](C)C(=O)O[C@@H](C)[C@H](C)c2ccccc2C)c1OC(C)=O` [Example 194], the pest or weed control at 25 ppm in the test on Phakopsora pachyrhizi (setting [1]) and in the test with Phakopsora pachyrhizi (setting [2]) was below 0% throughout.

`COc1ccnc(C(=O)N[C@H](C(=O)O[C@@H](C)[C@@H](C)c2ccc(F)cc2C)C(C)C)c1OC(=O)C(C)C` [Example 209]: the “PHAKPA 1DP” value in the test with Phakopsora pachyrhizi (1 day protectant) was “A (>80)”. The “PHAKPA 3DC” value with Phakopsora pachyrhizi (3 day curative) is on record as “A (>80)”.

Turning to `COc1ccc([C@@H](C)[C@@H](C)OC(=O)[C@@H](NC(=O)c2nccc(OC)c2OC(=O)C(C)C)C(C)C)c(C)c1` [Example 217], the pest or weed control at 25 ppm is below 80% in the test on Phakopsora pachyrhizi (setting [1]) and below 0% in the test with Phakopsora pachyrhizi (setting [2]).

For the compound `COc1ccnc(C(=O)N[C@H](C(=O)O[C@H](C)[C@@H](C)c2ccccc2C)C(C)C)c1OC(C)=O` [Example 191], the pest or weed control at 25 ppm in the test with Phakopsora pachyrhizi (setting [1]) and in the test with Phakopsora pachyrhizi (setting [2]) was below 80% throughout.

On to `COc1ccnc(C(=O)N[C@H](C)C(=O)O[C@H](C)[C@H](C)c2ccc(F)cc2C)c1OC(C)=O` [Example 195], for which the pest or weed control at 25 ppm was below 80% with Phakopsora pachyrhizi (setting [1]) and below 0% with Phakopsora pachyrhizi (setting [2]).

On to `COc1ccnc(C(=O)N[C@H](C(=O)O[C@@H](C)[C@@H](C)c2ccc(F)cc2)C(C)C)c1OC(=O)C(C)C` [Example 212], for which the pest or weed control at 25 ppm in the test with Phakopsora pachyrhizi (setting [1]) and in the test on Phakopsora pachyrhizi (setting [2]) was below 80% each time.

With `COc1ccc([C@H](C)[C@H](C)OC(=O)[C@@H](NC(=O)c2nccc(OC)c2OC(=O)C(C)C)C(C)C)c(C)c1` [Example 213], the pest or weed control at 25 ppm in the test on Phakopsora pachyrhizi (setting [1]) is above 80%; with Phakopsora pachyrhizi (setting [2]), below 80%.

As for `COc1ccnc(C(=O)N[C@H](C(=O)O[C@@H](C)[C@@H](C)c2ccc(F)cc2C)C(C)C)c1OC(=O)C(C)C` [Example 206], the “PHAKPA 1DP” value in the test with Phakopsora pachyrhizi (1 day protectant) is given as “B (≤80)”. Also, in the test with Phakopsora pachyrhizi (3 day curative), the “PHAKPA 3DC” value was “D (≤0)”.

In the case of `COc1ccnc(C(=O)N[C@H](C(=O)O[C@@H](C)[C@@H](C)c2ccc(F)cc2C)C(C)C)c1OC(=O)C(C)C` [Example 208], in the test with Phakopsora pachyrhizi (1 day protectant), the “PHAKPA 1DP” value is “A (>80)”. Besides, in the test on Phakopsora pachyrhizi (3 day curative), the “PHAKPA 3DC” value was “D (≤0)”.

With `CCC(=O)Oc1c(OC)ccnc1C(=O)N[C@@H](C)C(=O)O[C@@H](C)[C@@H](C)c1ccccc1C` [Example 278], the pest or weed control at 25 ppm in the test on Phakopsora pachyrhizi (setting [1]) and in the test on Phakopsora pachyrhizi (setting [2]) was above 80% in each case.

In the case of `COc1ccnc(C(=O)N[C@H](C)C(=O)O[C@H](C)[C@H](C)c2ccc(F)cc2C)c1OC(=O)C(C)C` [Example 219], the pest or weed control at 25 ppm in the test on Phakopsora pachyrhizi (setting [1]) and in the test on Phakopsora pachyrhizi (setting [2]) was below 0% throughout.

Take `COc1ccc([C@@H](C)[C@@H](C)OC(=O)[C@H](C)NC(=O)c2nccc(OC)c2OC(=O)C(C)C)c(C)c1` [Example 227]: the pest or weed control at 25 ppm is below 80% with Phakopsora pachyrhizi (setting [1]) and below 0% in the test on Phakopsora pachyrhizi (setting [2]).

Consider `COc1ccc([C@@H](C)[C@@H](C)OC(=O)[C@H](C)NC(=O)c2nccc(OC)c2OC(C)=O)c(C)c1` [Example 220], for which the “PHAKPA 1DP” value in the test with Phakopsora pachyrhizi (1 day protectant) is on record as “B (≤80)”. Also, the “PHAKPA 3DC” value in the test on Phakopsora pachyrhizi (3 day curative) is reported as “B (≤80)”.

Consider `COc1ccnc(C(=O)N[C@@H](C)C(=O)O[C@@H](C)[C@H](C)c2ccccc2C)c1OC(=O)C(C)C` [Example 202], for which the “PHAKPA 1DP” value in the test with Phakopsora pachyrhizi (1 day protectant) is “B (≤80)”. In addition, the pest or weed control at 25 ppm in the test on Phakopsora pachyrhizi (setting [2]) was below 0%.

In the case of `COc1ccnc(C(=O)N[C@H](C(=O)O[C@H](C)[C@@H](C)c2ccc(F)cc2C)C(C)C)c1OC(C)=O` [Example 190], the pest or weed control at 25 ppm in the test with Phakopsora pachyrhizi (setting [1]) and in the test on Phakopsora pachyrhizi (setting [2]) was below 0% throughout.

`COc1ccnc(C(=O)N[C@H](C(=O)O[C@@H](C)[C@H](C)c2ccccc2C)C(C)C)c1OC(=O)C(C)C` [Example 211]: the pest or weed control at 25 ppm in the test with Phakopsora pachyrhizi (setting [1]) was below 80%; in the test with Phakopsora pachyrhizi (setting [2]), below 0%.

Turning to `COc1ccc([C@@H](C)[C@@H](C)OC(=O)[C@@H](NC(=O)c2nccc(OC)c2OC(C)=O)C(C)C)c(C)c1` [Example 193], the pest or weed control at 25 ppm in the test on Phakopsora pachyrhizi (setting [1]) is below 80%; with Phakopsora pachyrhizi (setting [2]), below 0%.

Regarding `COc1ccnc(C(=O)N[C@H](C(=O)O[C@@H](C)[C@H](C)c2ccc(F)cc2C)C(C)C)c1OC(=O)C(C)C` [Example 210], the pest or weed control at 25 ppm in the test with Phakopsora pachyrhizi (setting [1]) and with Phakopsora pachyrhizi (setting [2]) was below 0% each time.

For the compound `COc1ccnc(C(=O)N[C@@H](C)C(=O)O[C@H](C)[C@@H](C)c2ccccc2C)c1OC(=O)C(C)C` [Example 225], the pest or weed control at 25 ppm in the test with Phakopsora pachyrhizi (setting [1]) and in the test on Phakopsora pachyrhizi (setting [2]) was below 0% each time.

Take `COc1ccnc(C(=O)NCC(=O)O[C@@H](C)[C@@H](C)c2ccc(F)cc2C)c1O` [Example 118]: the pest or weed control at 100 ppm is below 0% with Zymoseptoria tritici (setting [3]), below 80% in the test on Zymoseptoria tritici (setting [4]), above 80% in the test on Puccinia triticina (setting [5]) and above 80% in the test on Puccinia triticina (setting [6]).

As for `COc1ccnc(C(=O)N[C@H](C)C(=O)O[C@@H](C)[C@@H](C)c2ccc(F)cc2C)c1O` [Example 148], the pest or weed control at 100 ppm in the test on Zymoseptoria tritici (setting [3]) was above 80%; in the test with Zymoseptoria tritici (setting [4]), below 80%; in the test on Puccinia triticina (setting [5]), above 80%; in the test on Puccinia triticina (setting [6]), below 80%.

Take `COc1ccnc(C(=O)N[C@H](C)C(=O)O[C@H](C)[C@H](C)c2ccc(F)cc2)c1O` [Example 156]: the pest or weed control at 100 ppm was below 80% with Zymoseptoria tritici (setting [3]), below 80% with Zymoseptoria tritici (setting [4]), below 0% with Puccinia triticina (setting [5]) and below 80% with Puccinia triticina (setting [6]).

Turning to `COc1ccnc(C(=O)NCC(=O)O[C@@H](C)[C@H](C)c2ccccc2C)c1O` [Example 120], the pest or weed control at 100 ppm with Zymoseptoria tritici (setting [3]) was below 0%; with Zymoseptoria tritici (setting [4]), below 80%; with Puccinia triticina (setting [5]), below 80%; in the test with Puccinia triticina (setting [6]), below 80%.

Consider `COc1ccnc(C(=O)N[C@H](C)C(=O)O[C@@H](C)[C@@H](C)c2ccc(F)cc2)c1O` [Example 151], for which the pest or weed control at 100 ppm was below 80% with Zymoseptoria tritici (setting [3]), below 80% with Zymoseptoria tritici (setting [4]), below 80% with Puccinia triticina (setting [5]) and below 0% in the test with Puccinia triticina (setting [6]).

As for `COc1ccnc(C(=O)N[C@@H](C)C(=O)O[C@H](C)[C@@H](C)c2ccc(F)cc2C)c1O` [Example 134], the pest or weed control at 100 ppm with Zymoseptoria tritici (setting [3]), in the test on Zymoseptoria tritici (setting [4]), in the test with Puccinia triticina (setting [5]) and in the test on Puccinia triticina (setting [6]) was below 80% throughout.

For the compound `COc1ccnc(C(=S)N[C@@H](C)C(=O)O[C@@H](C)[C@@H](C)C2CCCC2)c1O` [Example 269], the pest or weed control at 100 ppm in the test on Zymoseptoria tritici (setting [3]) was below 80%; in the test on Zymoseptoria tritici (setting [4]), below 80%; in the test with Puccinia triticina (setting [5]) it was below 80%; in the test on Puccinia triticina (setting [6]), above 80%.

Values taken from US20200399222A1, “PICOLINAMIDES AS FUNGICIDES” (Dow AgroSciences LLC, priority 2018, published 2020).
